Test results published in US12559474B2, “Triazine derivatives having virus replication inhibitory activity and pharmaceutical composition comprising the same” (priority 2021, dated 2026).
Read-outs that look alike come from different tables or passages of the source.

Columns and labels:
SARS-CoV-2 = experiment: microbe, parasite or virus in culture; format: cell-based; conditions: Severe acute respiratory syndrome coronavirus 2, VeroE6/TMPRSS2, 72 h, 50% SARS-CoV-2 infected cell death inhibitory concentration, VeroE6/TMPRSS2 cells, 3 days culture
SARS-CoV-2 3CL protease = SARS-CoV-2 3CL protease (Severe acute respiratory syndrome coronavirus 2, UniProt P0DTD1); experiment: biochemical; conditions: 50% SARS-CoV-2 3CL protease inhibitory concentration, read-out: IC50

SMILES	EC50 (SARS-CoV-2; class symbols) [µM]	IC50 (SARS-CoV-2 3CL protease; given as class symbols) [µM]	EC50 (SARS-CoV-2; CellTiter-Glo 2.0) [µM]	IC50 (SARS-CoV-2 3CL protease; RapidFire MS) [µM]
CNc1nc2cc(F)c(Nc3nc(=O)n(-c4cncc(C)c4)c(=O)n3Cc3cc(C#N)ccc3C)cc2s1 [II-0419]	< 1	< 0.1		
CNc1nc2cc(F)c(Nc3nc(=O)n(-c4cncc(Cl)c4)c(=O)n3Cc3ccc(F)c(C#N)c3)cc2s1 [II-0263]	1 to 10	< 0.1		
CC(C)n1cc2cc(Nc3nc(=O)n(Cc4ncn(C)n4)c(=O)n3Cc3cc(F)c(F)cc3F)c(Cl)cc2n1 [II-0285]	< 1	< 0.1		
COc1ccc(Nc2nc(=O)n(Cc3c[nH]c(=O)[nH]c3=O)c(=O)n2Cc2cc(F)c(F)c(F)c2)c(Cl)c1 [Compound I-0404]	1 to 10	< 0.1		
Cc1cncc(-n2c(=O)nc(Nc3cc4cn(C)nc4cc3Cl)n(Cc3cc(Cl)ccc3C#N)c2=O)c1 [II-0426]	< 1	< 0.1		
Cc1cncc(-n2c(=O)nc(Nc3cc4c(cc3F)nc(C)n4C)n(Cc3ccc(F)c(C#N)c3)c2=O)c1 [II-0353]	1 to 10	< 0.1		
C[C@@H](O)Cn1cc2cc(Nc3nc(=O)n(Cc4cc(Cl)c[nH]c4=O)c(=O)n3Cc3cc(F)c(F)c(F)c3)c(Cl)cc2n1 [Compound I-0290]	1 to 10	< 0.1		
Cc1cncc(-n2c(=O)nc(Nc3cc4cn(CCN5CCOCC5)nc4cc3Cl)n(Cc3cc(F)c(F)c(F)c3)c2=O)c1 [II-0351]	< 1	< 0.1		
COc1ccc(Nc2nc(=O)n(Cc3ccc[nH]c3=O)c(=O)n2Cc2cc(Cl)ccc2Cl)cc1 [Compound I-0214]	< 1	< 0.1		
COc1cncc(-n2c(=O)nc(Nc3cc4cn(C)nc4cc3Cl)n(Cc3ccc(F)c(C#N)c3)c2=O)c1 [II-0578]	1 to 10	< 0.1		
Cc1cncc(-n2c(=O)nc(Nc3cc4sc(NCC(F)F)nc4cc3F)n(Cc3ccc(F)c(C#N)c3)c2=O)c1 [II-0424]	1 to 10	< 0.1		
Cc1cncc(-n2c(=O)nc(Nc3ccc4nn(C)cc4c3)n(Cc3cc(C#N)ccc3Cl)c2=O)c1 [II-0422]			0.29	0.0064
Cc1cncc(-n2c(=O)nc(N(C)c3cc4cn(C)nc4cc3Cl)n(Cc3cc(F)c(F)c(F)c3)c2=O)c1 [II-0483]			20.9	1.8
CCn1cc2cc(Nc3nc(=O)n(-c4cncc(Cl)c4)c(=O)n3Cc3cc(C#N)ccc3Cl)ccc2n1 [II-0036]			0.355	0.0083
Cc1cncc(-n2c(=O)nc(Nc3cc4cn(C)nc4cc3Cl)n(Cc3cc(C#N)c(F)cc3C(F)F)c2=O)c1 [II-0583]	< 1	< 0.1		
Cn1cc2cc(Nc3nc(=O)n(-c4cncc(Cl)c4)c(=O)n3Cc3cc(F)c(F)c(C#N)c3)ccc2n1 [II-0284]			0.184	0.0092
O=c1[nH]cccc1Cn1c(=O)nc(Nc2cc3c(cc2Cl)OCC3)n(Cc2cc(F)c(F)c(F)c2)c1=O [Compound I-0239]			0.225	0.0039
O=c1[nH]cc(Cl)cc1Cn1c(=O)nc(Nc2cc3cn([C@H]4CCC[C@@H]4O)nc3cc2Cl)n(Cc2cc(F)c(F)c(F)c2)c1=O [Compound I-0251]	1 to 10	< 0.1		
O=c1[nH]cccc1Cn1c(=O)nc(Nc2ccc(OC3CC3)cc2Cl)n(Cc2cc(F)c(F)c(F)c2)c1=O [Compound I-0392]	1 to 10	< 0.1		

SMILES	EC50 (SARS-CoV-2; class symbols) [µM]	IC50 (SARS-CoV-2 3CL protease; given as class symbols) [µM]	EC50 (SARS-CoV-2; CellTiter-Glo 2.0) [µM]	IC50 (SARS-CoV-2 3CL protease; RapidFire MS) [µM]
Cn1cnc(Cn2c(=O)nc(Nc3cc4cn(CC(=O)N5CCOCC5)nc4cc3Cl)n(Cc3cc(Cl)c(F)cc3F)c2=O)n1 [II-0132]			49.8	0.0025
Cc1cncc(-n2c(=O)nc(Nc3cc4c(C)n(C)nc4cc3Cl)n(Cc3ccc(F)c(C#N)c3)c2=O)c1 [II-0436]	< 1	< 0.1		
Cc1cncc(-n2c(=O)nc(Nc3ccc4oc(C)cc4c3)n(Cc3ccc(F)c(C#N)c3)c2=O)c1 [II-0196]	< 1	< 0.1		
CNc1nc2cc(F)c(Nc3nc(=O)n(-c4cncc(C)c4)c(=O)n3Cc3cc(C#N)c(F)cc3C)cc2s1 [II-0234]	< 1	< 0.1		
COc1ccc(Nc2nc(=O)n(Cc3ncn(C(F)F)n3)c(=O)n2Cc2cc(F)c(F)c(F)c2)cc1 [II-0257]			9.14	0.97
Cc1cncc(-n2c(=O)nc(Nc3cc4cn(CC(F)F)nc4cc3Cl)n(Cc3cc(F)c(F)cc3F)c2=O)c1 [II-0574]			0.2	0.0092
Cn1cc2cc(Nc3nc(=O)n(-c4cncc(Cl)c4)c(=O)n3Cc3cc(C#N)c(F)cc3Cl)ccc2n1 [II-0282]			0.26	0.0088
Cc1nc2cc(Cl)c(Nc3nc(=O)n(-c4cccc5ccccc45)c(=O)n3Cc3cc(F)c(F)c(F)c3)cc2n1C [Compound I-0456]	1 to 10	< 0.1		
CNc1nc2cc(F)c(Nc3nc(=O)n(-c4cncc(C)c4)c(=O)n3Cc3cc(Cl)c(F)cc3F)cc2s1 [II-0385]	< 1	< 0.1		
Cc1cncc(-n2c(=O)nc(Nc3ccc4nn(C)cc4c3)n(Cc3ccc(F)c(Cl)c3)c2=O)c1 [II-0469]	< 1	< 0.1		
Cc1cncc(-n2c(=O)nc(Nc3ccc4oc(C)c(C)c4c3)n(Cc3ccc(F)c(C#N)c3)c2=O)c1 [II-0195]	1 to 10	< 0.1		
Cc1cncc(-n2c(=O)nc(Nc3cc4c(cc3C)OCC4)n(Cc3cc(F)c(F)c(F)c3)c2=O)c1 [II-0219]	1 to 10	< 0.1		
COc1ccc(Nc2nc(=O)n(-c3cncc4ccccc34)c(=O)n2Cc2ccc(F)c(C#N)c2)cc1 [Compound I-0377]			0.0729	0.008
CCn1cc2cc(Nc3nc(=O)n(-c4cncc(Cl)c4)c(=O)n3Cc3cc(C#N)c(F)cn3)c(Cl)cc2n1 [II-0127]	1 to 10	< 0.1		
Cn1cnc(Cn2c(=O)nc(Nc3cc4cn(CCO)nc4cc3Cl)n(Cc3cc(Cl)c(F)cc3F)c2=O)n1 [II-0300]	1 to 10	< 0.1		
Cc1cncc(-n2c(=O)nc(Nc3cc4cn(C)nc4cc3F)n(Cc3cc(F)c(F)c(C#N)c3)c2=O)c1 [II-0054]	< 1	< 0.1		
Cc1cncc(-n2c(=O)nc(Nc3cc4cn(C)nc4cc3Cl)n(Cc3cc(Cl)cc(Cl)c3)c2=O)c1 [II-0205]	1 to 10	< 0.1		
Cn1cnc(Cn2c(=O)nc(Nc3cc4cn(C)nc4cc3Cl)n(Cc3cc(C#N)c(F)cc3Cl)c2=O)n1 [II-0088]	1 to 10	< 0.1		
Cc1cncc(-n2c(=O)nc(Nc3cc4cn(C)nc4cc3Cl)n(Cc3cc(Cl)ccc3Cl)c2=O)c1 [II-0582]	< 1	< 0.1		

SMILES	EC50 (SARS-CoV-2; class symbols) [µM]	IC50 (SARS-CoV-2 3CL protease; given as class symbols) [µM]	EC50 (SARS-CoV-2; CellTiter-Glo 2.0) [µM]	IC50 (SARS-CoV-2 3CL protease; RapidFire MS) [µM]
Cn1cc2cc(Nc3nc(=O)n(-c4cncc(C(F)(F)F)c4)c(=O)n3Cc3cc(F)c(F)c(F)c3)c(Cl)cc2n1 [II-0273]			6.6	0.36
Cc1cncc(-n2c(=O)nc(Nc3cc4cn(CCN5CCOCC5)nc4cc3Cl)n(Cc3cc(F)c(F)cc3F)c2=O)c1 [II-0007]	< 1	< 0.1		
CNC(=O)Cn1cc2cc(Nc3nc(=O)n(-c4cncc5ccccc45)c(=O)n3Cc3cc(F)c(F)cc3F)c(Cl)cc2n1 [II-0556]	1 to 10	< 0.1		
CCn1cc2cc(Nc3nc(=O)n(-c4cncc(C)c4)c(=O)n3Cc3cc(C#N)c(F)cc3C)ccc2n1 [II-0335]			0.241	0.0032
Cc1ccc(C#N)cc1Cn1c(Nc2cc3cn(C)nc3cc2Cl)nc(=O)n(-c2cncc(Cl)c2)c1=O [II-0543]			0.087	0.0028
Cn1cnc(Cn2c(=O)nc(Nc3cc4cn(C)nc4cc3Cl)n(Cc3cc(F)c(F)c(F)c3)c2=O)c1 [Compound I-0426]			1.03	0.0063
COc1ccc(Nc2nc(=O)n(Cc3cc4c([nH]c3=O)CCC4)c(=O)n2Cc2cc(F)c(F)c(F)c2)cc1 [II-0343]			4.14	0.31
CNc1nc2ccc(Nc3nc(=O)n(-c4cncc(Cl)c4)c(=O)n3Cc3cc(F)c(F)c(C#N)c3)cc2s1 [II-0387]	< 1	< 0.1		
Cc1cncc(-n2c(=O)nc(Nc3ccc4nc(NCC(F)(F)F)sc4c3)n(Cc3cc(F)c(F)c(C#N)c3)c2=O)c1 [II-0295]	1 to 10	< 0.1		
Cc1cncc(-n2c(=O)nc(Nc3ccc4nn(C)c(C)c4c3)n(Cc3ccc(F)c(C#N)c3)c2=O)c1 [II-0264]	1 to 10	< 0.1		
C[C@@H](O)Cn1cc2cc(Nc3nc(=O)n(Cc4ccc[nH]c4=O)c(=O)n3Cc3cc(F)c(F)c(F)c3)c(Cl)cc2n1 [Compound I-0425]	1 to 10	< 0.1		
O=c1nc(Nc2cc3sc(NC4CC4)nc3cc2Cl)n(Cc2cc(Cl)c(F)cc2F)c(=O)n1Cc1ncccn1 [II-0237]	< 1	< 0.1		
COc1ccc(Nc2nc(=O)n(-c3cncc4ccncc34)c(=O)n2Cc2cc(F)c(F)c(F)c2)cc1 [Compound I-0344]	< 1	< 0.1		
Cn1cc2cc(Nc3nc(=O)n(Cc4cc5cccnc5[nH]c4=O)c(=O)n3Cc3cc(F)c(F)c(F)c3)c(Cl)cc2n1 [Compound I-0236]	< 1	< 0.1		
Cn1cnc(Cn2c(=O)nc(Nc3cc4cn(CC(F)F)nc4cc3F)n(Cc3cc(F)c(F)c(F)c3)c2=O)n1 [II-0112]	1 to 10	< 0.1		
CC(C)(O)Cn1cc2cc(Nc3nc(=O)n(Cc4cc(Cl)c[nH]c4=O)c(=O)n3Cc3cc(F)c(F)c(F)c3)c(Cl)cc2n1 [Compound I-0455]	1 to 10	< 0.1		
Cc1cncc(-n2c(=O)nc(Nc3cc4cn(C)nc4cc3Cl)n(Cc3cc(C#N)c(F)cc3Cc3cccc(Cl)c3)c2=O)c1 [II-0434]	< 1	< 0.1		
Cn1cnc(Cn2c(=O)nc(Nc3cc4sc(NCC(F)F)nc4cc3Cl)n(Cc3cc(Cl)c(F)cc3F)c2=O)n1 [II-0262]	1 to 10	< 0.1		
